From patent US20070167408A1, “NOVEL ALKYL PHOSPHOLIPID DERIVATIVES WITH REDUCED CYTOTOXICITY AND USES THEREOF” (ZENTARIS GmbH, priority 2005, published 2007)
Values after ≈ are worked out from the molar mass of the structure shown.

Assays:
[1] = tested on: PC3 (human prostate carcinoma) cells; assay: XTT cytotoxicity assay, PC3 cells; type: cell-based; conditions: Homo sapiens, PC-3; 31.6 μM, second set of experiments; read-out: PC3 % INH [31.6 μM]
How it was run: (§1)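 Cells recovered 24 h after plating, then exposed to compounds for 48 h at 37 °C; one set used 10 semi-log concentrations from 100 μM, another 31.6 μM final for PC3 and RKOp21. XTT-PMS added for 3 h, formazan absorbance at 490 nm versus untreated cells; IC50 from inhibition curves.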

[2] = tested on: RKOp21 (human colon adenocarcinoma) cells; assay: XTT cytotoxicity assay, RKOp21 cells; type: cell-based; conditions: Homo sapiens; 31.6 μM, second set of experiments; read-out: RKOp21 % INH [31.6 μM]
How it was run: as §1

[3] = tested on: SKOV-3 (human ovary adenocarcinoma) cells; assay: XTT cytotoxicity assay, SKOV-3 cells; type: cell-based; conditions: Homo sapiens, SK-OV-3, second set of experiments, read-out: SKOV-3 % INH [100 μM]
Procedure: On the first day of the experiment cells were harvested from exponential phase cultures by trypsination, counted and plated into 96 well flat-bottom micro titer plates depending on the cell line as listed below: [table] After a 24 h recovery to allow the cells to resume exponential growth, the test compounds were diluted immediately prior to use and transferred in 25 μl volume to the wells. Following 2 days of continuous drug exposure 50 μl of freshly prepared XTT-PMS solution {2% 0.386 mg/ml PMS (N-Methyl Dibenzopyrazine Methylsulphate; Sigma, Cat. No. […] Serva, Cat. No. 38450) in RPMI 1640 medium without phenol red} was added to the wells. To measure the proportion of living cells, the cells were incubated for 3 h with XTT-PMS reagent at 37° C., 5% CO2, humidified atmosphere allowing to form the formazan salt. […] Inhibition curves were generated and IC50 values calculated by using GraphPad Prism.

[4] = tested on: Moraxella catarrhalis DMS 11994 (ATCC 43617); assay: Anti-bacterial bouillon microdilution assay (MIC), bacterium D; type: cell-based; conditions: ATCC43617, 24 h
How it was run: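 Broth microdilution MIC per DIN 58940-5/-7. Twofold compound dilutions in water spanned 256 to 0.125 μg/ml in the test concentration series, with inocula of about 1×10^6 organisms/ml in strain-appropriate media. Growth was read as turbidity at 595 nm before and after incubation, against growth and sterile controls.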

[5] = tested on: Streptococcus pneumoniae DSM 11967 (ATCC 49619); assay: Anti-bacterial bouillon microdilution assay (MIC), bacterium B; type: cell-based; conditions: Streptococcus pneumoniae DSM 11967, 24 h
Procedure: (§2) Selected compounds of the invention were tested in a bouillon microdilution assay method according to the DIN 58940 (www.din.de) guidelines for determination of susceptibility of bacterial strains with regard to cell growth inhibition. The assay method quantifies bacterial cell growth which corresponds to the turbidity of the liquid culture medium by photometric measurement carried out at 595 nm.
(§3) The method of MIC determination was performed according to DIN 58940-5. The volumina were adapted according to the microdilution method as described in DIN 58940-7 guideline.
(§4) Dependent on water solubility, compounds of the invention were dissolved either in water or ethanol in a concentration of 10 mg/ml. Subsequently, the stock was further diluted in water to a concentration of 512 μg/ml. The following serial dilutions (factor 2) were performed in water resulting in the following […] testing concentrations: 256 μg/ml, 128 μg/ml, 64 μg/ml, 32 μg/ml, 16 μg/ml, 8 μg/ml, 4 μg/ml, 2 μg/ml, 1 μg/ml, 0.5 μg/ml, 0.25 μg/ml and 0.125 μg/ml. Diluted compounds of the invention were transferred in 100 μl volume to the microtiter plate wells.
(§5) Pre-cultures of bacteria were grown in appropriate liquid media (refer to ATCC webpage, www.atcc.org) and afterwards were inoculated in corresponding liquid medium. 100 μl of the inoculums [adjusted to an amount of app. 1×10^6 microorganisms per ml (range of 10^5-10^8 microorganisms per ml)] were added to each of the testing compound concentrations and cultivated under the appropriate conditions.
(§6) Before and after incubation, bacterial growth was determined by photometric analysis against a positive control containing growing bacteria without compound and a sterile/negative control containing only the medium.

[6] = tested on: Streptococcus pneumoniae DSM 20566 (ATCC 33400); assay: Anti-bacterial bouillon microdilution assay (MIC), bacterium A; type: cell-based; conditions: Streptococcus pneumoniae DSM 20566, 24 h
Procedure: as §2, §3, §4, §5, §6

[7] = tested on: PC3, RKOp21 and SKOV-3 cell lines; assay: XTT cytotoxicity assay, mean over all three cell lines; type: cell-based, human; conditions: mean value over all three cell lines
Procedure: Following 2 days of continuous drug exposure 50 μl of freshly prepared XTT-PMS solution {2% 0.386 mg/ml PMS (N-Methyl Dibenzopyrazine Methylsulphate; Sigma, Cat. No. […] Serva, Cat. No. 38450) in RPMI 1640 medium without phenol red} was added to the wells. To measure the proportion of living cells, the cells were incubated for 3 h with XTT-PMS reagent at 37° C., 5% CO2, humidified atmosphere allowing to form the formazan salt. […] Inhibition curves were generated and IC50 values calculated by using GraphPad Prism. In the following table 7 cytotoxicity results (% inhibition of cell growth) obtained in the second set of experiments for selected compounds of the invention are presented in comparison to examples of the prior art (perifosine, miltefosine). The results presented are individual values for the respective cell line as well as the mean value over all three cell lines tested.

[8] = tested on: Bacteroides fragilis DSM 2151 (ATCC 25285); assay: Anti-bacterial bouillon microdilution assay (MIC), bacterium E; type: cell-based; conditions: anaerob, 24 h
Procedure: as §2, §3, §4, §5, §6

[9] = tested on: Enterococcus faecium DSM 20477 (ATCC 19434); assay: Anti-bacterial bouillon microdilution assay (MIC), bacterium C; type: cell-based; conditions: Enterococcus faecium DSM 20477, 24 h
Procedure: as §2, §3
as §4, with “wells. […]” for “wells.”
as §6

Leishmaniasis = conditions: clinical phase III trials, parenteral; cited from earlier work

| SMILES | inhibition at 31.6 µM [1] [%] | inhibition at 31.6 µM [2] [%] | inhibition at 100 µM [3] [%] | MIC [4] [µg/mL] | MIC [5] [µg/mL] | MIC [6] [µg/mL] | Mean % INH [7] [%] | MIC [8] [µg/mL] | MIC [9] [µg/mL] | efficient in % of the cases (Leishmaniasis) [%] |
| --- | --- | --- | --- | --- | --- | --- | --- | --- | --- | --- |
| CCCCCCCCCCCCCCCCOP(=O)([O-])OCC[N+]1(C)CCCCCC1 [Compound 89, Phosphoric acid hexadecyl ester 2-(1-methyl-azepan-1-yl)-ethyl ester] | 50.6 | 11.3 | 26.1 | 4 (≈ 8.66 µM) | 4 (≈ 8.66 µM) | 8 (≈ 17.3 µM) | 29.3 | – | – | – |
| CCCCCCCCCCCCCCCCOP(=O)([O-])OCC[N+](C)(C)c1ccccc1 [Compound 107, Phosphoric acid hexadecyl ester 2-(N-phenyl-N,N-dimethyl-amino)-ethyl ester] | – | – | – | 4 (≈ 8.52 µM) | 4 (≈ 8.52 µM) | 8 (≈ 17 µM) | – | 64 (≈ 136 µM) | 8 (≈ 17 µM) | – |
| NC[C@@H]1O[C@H](O[C@H]2[C@@H](O)[C@H](O[C@@H]3[C@@H](O)[C@H](N)C[C@H](N)[C@H]3O[C@H]3O[C@H](CO)[C@@H](O)[C@H](O)[C@H]3N)O[C@@H]2CO)[C@H](N)[C@@H](O)[C@@H]1O [paromomycin, O-2-amino-2-deoxy-alpha-D-glucopyranosyl-(1-4)-O-[O-2,6-diamino-2,6-dideoxy-beta-L-idopyranosyl-(1-3)-beta-D-ribofuranosyl-(1-5)]-2-deoxy-D-streptamine] | – | – | – | – | – | – | – | – | – | 95 |
